Data set [1] relates to primary BMDM cells. Put plainly: Cell growth and proliferation assay (MTS) in primary bone marrow-derived macrophages. The following applies: for concentration at which cell division was stimulated (MTS assay) on exposure of the cells to light: primary BMDM, compound in EtOH. The format is cell-based, CD-1 mice. The procedure: The cells were incubated with 1.5% MCSF for 24 hr.
Compounds 1a and 2a stimulated cell division, as determined by the MTS assay, at 2.5 and 1.0 μM, respectively, on exposure of the cells to light.
Cell Growth and Proliferation Assays. RAW 264.7 cells were obtained from the American Type Culture Collection (Rockville, Md.). BMDMs were isolated from femurs of 6- to 8-week old female CD-1 mice from Charles River Laboratory as described previously.^S2 The cells were cultured as described previously. Cell growth was estimated by measuring the rate of reduction of the tetrazolium dye MTS, (3-(4,5-dimethylthiazol-2-yl)-5-(3-carboxymethoxy-phenol)-2-(4-sulfophenyl)-2H-tetrazolium). […] Photolysis of 2.5 μM of compound 1a (delivered to RAW 264.7 cells in EtOH) was equipotent as exogenous 30 μM C1P.
On the technique in general: Formazan colour is commonly taken as a measure of viable cells.

Data set [2] relates to RAW 264.7 cells. Put plainly: Cell growth and proliferation assay (MTS) in RAW 264.7 macrophages. The note with it: for cell growth on delivery into RAW 264.7 macrophages: FIG. 3A, 400-500 nm light in a transilluminator; for concentration at which cell division was stimulated (MTS assay) on exposure of the cells to light: RAW264.7, compound in EtOH, 400-500 nm light; for growth stimulation in the dark: cells incubated in the dark with the compounds; for concentration for stimulation of macrophage proliferation compared with exogenous C1P: macrophages (RAW 264.7 and BMDM), after photorelease.
Description: Cell Growth and Proliferation Assays. RAW 264.7 cells were obtained from the American Type Culture Collection (Rockville, Md.). […] Cell growth was estimated by measuring the rate of reduction of the tetrazolium dye MTS, (3-(4,5-dimethylthiazol-2-yl)-5-(3-carboxymethoxy-phenol)-2-(4-sulfophenyl)-2H-tetrazolium).
The cells were exposed to 400-500 nm light in a transilluminator equipped with a 9W lamp for 60 min at a distance of 1.5 cm at 37° C.

Data set [3] can be described thus: Qualitative measurement of uncaging efficiency (photolysis at 365 nm, TLC). Type of data set: physicochemical. The note with it: 100 μM in 50% aqueous EtOH, 50% 10 mM Tris, pH 7.4, 365 nm UV lamp at 1 cm. How it is done:
Qualitative Measurement of Uncaging Efficiency. A 100 μM solution of S1P 1 in 50% aqueous EtOH and 50% 10 mM Tris, pH 7.4, was placed in a quartz cuvette and placed at a distance of 1 cm from a conventional UV lamp (Entela UVGL-25 UV lamp). The compound was irradiated using long wavelength (365 nm) and, after a certain time, as indicated in the TLC, an aliquot was applied to a TLC plate, which was developed with CHCl3/MeOH 3:1. Photodecomposition of 100% DECM-caged 1P 1 took place around 60 min.
Qualitative Measurement of Uncaging Efficiency. A 100 μM solution of BHNB-caged S1P (2) in 50% aqueous EtOH and 50% 10 mM Tris, pH 7.4, was placed in a quartz cuvette and irradiated at 365 nm at a distance of 1 cm with a conventional UV lamp (Entela UVGL-25 UV lamp). Aliquots were withdrawn at various times and analyzed by TLC (developed using CHCl3/MeOH 2:1). The mechanism of photolysis of 2-nitrobenzyl caged compounds has been thoroughly studied and is known to generate 2-nitrosobenzaldehyde as the photo by-product of the reaction.^S1 Similarly, our BHNB uncaging experiment is expected to generate a 2-nitrosobenzophenone derivative as the byproduct (Formula 20). […] 100% photodecomposition of […]-S1P (2) took place after 65 min.

Entries after “also recorded” stand apart in the source; their conditions may differ.

As to `CCCCCCCCCCCCC/C=C/[C@@H](O)[C@H](COP(=O)(O)O)NC(=O)CCCCCCCCCCCCCCC` [N-palmitoyl-C1P, reference compound], the “optimum concentration for stimulation of cell growth” value in data set [1] (BMDM, aqueous dispersion, exogenous addition) is 50 µM; in data set [2] (RAW 264.7, aqueous dispersion, exogenous addition), 30 µM. The “effect on cell growth at concentrations higher than 30 μM” value in data set [2] (RAW 264.7, exogenous aqueous dispersion) is recorded as “growth inhibitory”.
For the molecule `CCCCCCCCCCCCC/C=C/[C@@H](O)[C@@H](N)COP(=O)(O)OCc1cc(=O)oc2cc(N(CC)CC)ccc12` [Compound 1, (2S,3R,4E)-2-Amino-3-hydroxyoctadec-4-enyl (7-(Diethylamino)coumarin-4-yl) -methyl Phosphate], in data set [3], the “time to 100% photodecomposition” value is on record as “around 60 min”.
On the same count and under the same terms, under `CCCCCCCCCCCCC/C=C/[C@@H](O)[C@@H](N)COP(=O)(O)OC(c1ccccc1)c1cc(O)c(Br)cc1[N+](=O)[O-]` (stereo partly drawn) [Compound 2, (2S,3R,4E)-2-Amino-3-hydroxyoctadec-4-enyl-(4′-bromo-5′-hydroxy-2′-nitrophenyl)(phenyl)methyl Hydrogen Phosphate] stands 65 min.
Regarding `CCCCCCCCCCCCC/C=C/[C@@H](O)[C@H](COP(=O)(O)OCc1cc(=O)oc2cc(N(CC)CC)ccc12)NC(=O)CCCCCCCCCCCCCCC` [Compound 1a, (2S,3R,4E)-2-Palmitamido-3-hydroxyoctadec-4-enyl (7-Diethylaminocoumarin-4-yl)methyl Phosphate], the “concentration at which cell division was stimulated (MTS assay) on exposure of the cells to light” value (shortened to “concentration … to light”) in data set [1] stood at 2.5 µM. Besides, in data set [2], the “cell growth on delivery into RAW 264.7 macrophages” value is reported as “stimulates cell growth”, the “concentration … to light” value was found to be 2.5 µM, the “growth stimulation in the dark” value is “No growth stimulation” and the “concentration for stimulation of macrophage proliferation compared with exogenous C1P” value is “significantly lower concentrations than exogenous C1P”. Moreover, the “potency of growth stimulation compared with exogenous C1P at 30 μM” value in data set [2] (RAW 264.7, 2.5 μM in EtOH, photolysis) is given as “as potent as exogenous C1P; also recorded: equipotent”.
Regarding `CCCCCCCCCCCCC/C=C/[C@@H](O)[C@H](COP(=O)(O)OC(c1ccccc1)c1cc(O)c(Br)cc1[N+](=O)[O-])NC(=O)CCCCCCCCCCCCCCC` (stereo partly drawn) [Compound 2a, (4′-Bromo-5′-hydroxy-2′-nitrophenyl)(phenyl)methyl-(2S,3R,4E)-3-hydroxy-2-palmitamidooctadee-4-enyl Hydrogen Phosphate], in data set [1], the “concentration … to light” value was found to be 1.0 µM. Further, in data set [2], the “cell growth on delivery into RAW 264.7 macrophages” value is recorded as “stimulates cell growth”, the “concentration … to light” value turned out to be 1.0 µM, the “growth stimulation in the dark” value is reported as “No growth stimulation” and the “concentration for stimulation of macrophage proliferation compared with exogenous C1P” value is given as “significantly lower concentrations than exogenous C1P”.

Values taken from patent publication US9359389B2, “Caged ceramide-1-phosphate derivatives” (RESEARCH FOUNDATION OF THE CITY UNIVERSITY OF NEW YORK, priority 2009, dated 2016).
